pEC50: −log10 of the molar value.
Test system: BJAB cells
Assay: BJAB cell proliferation (Cell Titer Glo)
Assay type: cell-based
Conditions: Homo sapiens, read-out: EC50
Method: Cells were seeded in white Corning Costar 96-well assay plates at 2500 cells/well in 50 μL of medium. Serial dilutions of test compounds were made in cell culture medium/FBS+0.2% DMSO, and transferred to assay plates in a volume of 50 μL (DMSO at 0.1% final). Plates were maintained at 37° C. for approximately 72 hours. The effect of compounds on cell proliferation was evaluated using the Cell Titer Glo reagent (Promega), according to the manufacturer's instructions. Briefly, 100 μL of reagent was added per well, and after a 10 minute incubation luminescence values were determined on a plate reader (Tecan F200PRO). The percent of luminescence signal relative to untreated controls was calculated for each compound concentration, and EC50 values were determined from dose response data by non-linear regression analysis using Prism (GraphPad). The mTor inhibitor Torin1 (Liu, et al. (2010) J. Med. Chem. 53, 7146.) was used as a control. The data are summarized in the compound table provided above.

Row | SMILES | pEC50
1 | Cc1nn(-c2nc(-c3ccc4nccn4c3)c(SC(C)C)s2)c(C(=O)O)c1-c1cc(Cl)cc(Cl)c1 [Compound 31, 4-(3,5-dichlorophenyl)-1-(4-(imidazo[1,2-a]pyridin-6-yl)-5-(isopropylthio)thiazol-2-yl)-3-methyl-1H-pyrazole-5-carboxylic acid] | < 4.60
2 | CCC(C)Sc1sc(-n2nc(C)c(-c3cc(Cl)cc(Cl)c3)c2C(=O)OC)nc1-c1ccc(Cl)c(Cl)c1 (stereo not shown) [Compound 32a] | < 4.60
3 | CCC(C)Sc1sc(-n2nc(C)c(-c3cc(Cl)cc(Cl)c3)c2C(=O)O)nc1-c1ccc(Cl)c(Cl)c1 (stereo not shown) [Compound 32b] | 5.30 to 6.00
4 | CCC(C)Sc1sc(-n2nc(C)c(-c3cc(C)nc(C)c3)c2C(=O)OC)nc1-c1ccc(Cl)c(Cl)c1 (stereo not shown) [Compound 33a] | < 4.60
5 | CCC(C)Sc1sc(-n2nc(C)c(-c3cc(C)nc(C)c3)c2C(=O)O)nc1-c1ccc(Cl)c(Cl)c1 (stereo not shown) [Compound 33b] | > 6.00
6 | COc1ccccc1-c1nc(-n2nc(C)c(-c3cc(C)nc(C)c3)c2C(=O)O)sc1SC(C)C [Compound 34, 4-(2,6-dimethylpyridin-4-yl)-1-(5-(isopropylthio)-4-(2-methoxyphenyl)thiazol-2-yl)-3-methyl-1H-pyrazole-5-carboxylic acid] | 5.00 to 5.30
7 | COc1cccc(-c2nc(-n3nc(C)c(-c4cc(C)nc(C)c4)c3C(=O)O)sc2SC(C)C)c1 [Compound 35, 4-(2,6-dimethylpyridin-4-yl)-1-(5-(isopropylthio)-4-(3-methoxyphenyl)thiazol-2-yl)-3-methyl-1H-pyrazole-5-carboxylic Acid] | 5.30 to 6.00
8 | COc1ccc(-c2nc(-n3nc(C)c(-c4cc(C)nc(C)c4)c3C(=O)O)sc2SC(C)C)cc1 [Compound 36, 4-(2,6-dimethylpyridin-4-yl)-1-(5-(isopropylthio)-4-(4-methoxyphenyl)thiazol-2-yl)-3-methyl-1H-pyrazole-5-carboxylic acid] | 4.60 to 5.00
9 | Cc1cc(-c2c(C)nn(-c3nc(-c4ccccc4)c(SC(C)C)s3)c2C(=O)O)cc(C)n1 [Compound 37, 4-(2,6-dimethylpyridin-4-yl)-1-(5-(isopropylthio)-4-phenylthiazol-2-yl)-3-methyl-1H-pyrazole-5-carboxylic Acid] | 5.00 to 5.30
10 | Cc1nn(-c2nc(-c3ccc(Cl)c(Cl)c3)c(SC(C)C)s2)c(C(=O)O)c1-c1c(CO)noc1C [Compound 38, 1-(4-(3,4-dichlorophenyl)-5-(isopropylthio)thiazol-2-yl)-4-(3-(hydroxymethyl)-5-methylisoxazol-4-yl)-3-methyl-1H-pyrazole-5-carboxylic acid] | < 4.30
11 | COCc1noc(C)c1-c1c(C)nn(-c2nc(-c3ccc(Cl)c(Cl)c3)c(SC(C)C)s2)c1C(=O)O [Compound 39, 1-(4-(3,4-dichlorophenyl)-5-(isopropylthio)thiazol-2-yl)-4-(3-(methoxymethyl)-5-methylisoxazol-4-yl)-3-methyl-1H-pyrazole-5-carboxylic acid] | 4.60 to 5.00
12 | Cc1ccc(-c2nc(-n3nc(C)c(-c4cc(C)nc(C)c4)c3C(=O)O)sc2SC(C)C)cc1 [Compound 40, 4-(2,6-dimethylpyridin-4-yl)-1-(5-(isopropylthio)-4-p-tolylthiazol-2-yl)-3-methyl-1H-pyrazole-5-carboxylic acid] | 5.30 to 6.00
13 | Cc1cccc(-c2nc(-n3nc(C)c(-c4cc(C)nc(C)c4)c3C(=O)O)sc2SC(C)C)c1 [Compound 41, 4-(2,6-dimethylpyridin-4-yl)-1-(5-(isopropylthio)-4-m-tolylthiazol-2-yl)-3-methyl-1H-pyrazole-5-carboxylic Acid] | 5.00 to 5.30
14 | Cc1cc(-c2c(C)nn(-c3nc(-c4ccccc4C)c(SC(C)C)s3)c2C(=O)O)cc(C)n1 [Compound 42, 4-(2,6-dimethylpyridin-4-yl)-1-(5-(isopropylthio)-4-o-tolylthiazol-2-yl)-3-methyl-1H-pyrazole-5-carboxylic acid] | 5.30 to 6.00
15 | Cc1nn(-c2nc(-c3ccc(Cl)c(Cl)c3)c(SC(C)C)s2)c(C(=O)O)c1-c1cccnc1 [Compound 44, 1-(4-(3,4-dichlorophenyl)-5-(isopropylthio)thiazol-2-yl)-3-methyl-4-(pyridin-3-yl)-1H-pyrazole-5-carboxylic acid] | 4.60 to 5.00
16 | CSc1sc(-n2nc(C)c(Cc3ccccc3[N+](=O)[O-])c2C(=O)O)nc1-c1ccc(Cl)c(Cl)c1 [Compound 45, 1-(4-(3,4-dichlorophenyl)-5-(methylthio)thiazol-2-yl)-3-methyl-4-(2-nitrobenzyl)-1H-pyrazole-5-carboxylic acid] | 4.30 to 4.60

Row | SMILES | pEC50
17 | Cc1nn(-c2nc(-c3ccc(Cl)c(Cl)c3)c(SC(C)C)s2)c(C(=O)O)c1-c1cccc(CO)c1 [Compound 46, 1-(4-(3,4-dichlorophenyl)-5-(isopropylthio)thiazol-2-yl)-4-(3-(hydroxymethyl)phenyl)-3-methyl-1H-pyrazole-5-carboxylic acid] | 4.60 to 5.00
18 | Cc1nn(-c2nc(-c3ccc(Cl)c(Cl)c3)c(SC(C)C)s2)c(C(=O)O)c1-c1ccncc1 [Compound 47, 1-(4-(3,4-dichlorophenyl)-5-(isopropylthio)thiazol-2-yl)-3-methyl-4-(pyridin-4-yl)-1H-pyrazole-5-carboxylic Acid] | 5.00 to 5.30
19 | Cc1nn(-c2nc(-c3ccc(Cl)c(Cl)c3)c(SC(C)C)s2)c(C(=O)O)c1-c1cccc(CN)c1 [Compound 48, 4-(3-(aminomethyl)phenyl)-1-(4-(3,4-dichlorophenyl)-5-(isopropylthio)thiazol-2-yl)-3-methyl-1H-pyrazole-5-carboxylic acid] | 4.30 to 4.60
20 | Cc1nn(-c2nc(-c3ccc(Cl)c(Cl)c3)c(SC(C)C)s2)c(C(=O)O)c1-c1ccc(CO)cc1 [Compound 49, 1-(4-(3,4-dichlorophenyl)-5-(isopropylthio)thiazol-2-yl)-4-(4-(hydroxymethyl)phenyl)-3-methyl-1H-pyrazole-5-carboxylic acid] | < 4.30
21 | Cc1nn(-c2nc(-c3ccc(Cl)c(Cl)c3)c(SC(C)C)s2)c(C(=O)O)c1-c1ccccc1C(F)(F)F [Compound 50, 1-(4-(3,4-dichlorophenyl)-5-(isopropylthio)thiazol-2-yl)-3-methyl-4-(2-(trifluoromethyl)phenyl)-1H-pyrazole-5-carboxylic acid] | 5.00 to 5.30
22 | Cc1nn(-c2nc(-c3ccc(Cl)c(Cl)c3)c(SC(C)C)s2)c(C(=O)O)c1-c1cccc(C(F)(F)F)c1 [Compound 51, 1-(4-(3,4-dichlorophenyl)-5-(isopropylthio)thiazol-2-yl)-3-methyl-4-(3-(trifluoromethyl)phenyl)-1H-pyrazole-5-carboxylic Acid] | 5.30 to 6.00
23 | Cc1nn(-c2nc(-c3ccc(Cl)c(Cl)c3)c(SC(C)C)s2)c(C(=O)O)c1-c1ccc(C(F)(F)F)cc1 [Compound 52, 1-(4-(3,4-dichlorophenyl)-5-(isopropylthio)thiazol-2-yl)-3-methyl-4-(4-(trifluoromethyl)phenyl)-1H-pyrazole-5-carboxylic Acid] | 4.60 to 5.00
24 | Cc1nn(-c2nc(-c3ccc(Cl)c(Cl)c3)c(SC(C)C)s2)c(C(=O)O)c1C(O)c1ccccc1 (stereo not shown) [Compound 53, 1-(4-(3,4-dichlorophenyl)-5-(isopropylthio)thiazol-2-yl)-4-(hydroxy(phenyl)methyl)-3-methyl-1H-pyrazole-5-carboxylic Acid] | < 4.30
25 | Cc1nn(-c2nc(-c3ccc(Cl)c(Cl)c3)c([S+]([O-])C(C)C)s2)c(C(=O)O)c1Cc1ccccc1[N+](=O)[O-] (stereo not shown) [Compound 54, 1-(4-(3,4-dichlorophenyl)-5-(isopropylsulfinyl)thiazol-2-yl)-3-methyl-4-(2-nitrobenzyl)-1H-pyrazole-5-carboxylic acid] | 4.30 to 4.60
26 | Cc1nn(-c2nc(-c3ccc(Cl)c(Cl)c3)c(S(=O)(=O)C(C)C)s2)c(C(=O)O)c1Cc1ccccc1[N+](=O)[O-] [Compound 55, 1-(4-(3,4-dichlorophenyl)-5-(isopropylsulfonyl)thiazol-2-yl)-3-methyl-4-(2-nitrobenzyl)-1H-pyrazole-5-carboxylic acid] | 4.60 to 5.00
27 | Cc1nn(-c2nc(-c3ccc(Cl)c(Cl)c3)c(SC(C)C)s2)c(C(=O)O)c1-c1nnc2ccccn12 [Compound 56, 4-([1,2,4]triazolo[4,3-a]pyridin-3-yl)-1-(4-(3,4-dichlorophenyl)-5-(isopropylthio)thiazol-2-yl)-3-methyl-1H-pyrazole-5-carboxylic Acid] | < 4.30
28 | Cc1noc(C)c1-c1c(C)nn(-c2nc(-c3ccc(Cl)c(Cl)c3)c(SC(C)C)s2)c1C(=O)O [Compound 57, 1-(4-(3,4-dichlorophenyl)-5-(isopropylthio)thiazol-2-yl)-4-(3,5-dimethylisoxazol-4-yl)-3-methyl-1H-pyrazole-5-carboxylic acid] | 4.60 to 5.00
29 | Cc1nn(-c2nc(-c3ccc(Cl)c(Cl)c3)c(SC(C)C)s2)c(C(=O)O)c1-c1nc2ccccc2[nH]1 [Compound 58, 4-(1H-benzo[d]imidazol-2-yl)-1-(4-(3,4-dichlorophenyl)-5-(isopropylthio)thiazol-2-yl)-3-methyl-1H-pyrazole-5-carboxylic Acid] | 4.30 to 4.60
30 | Cc1nn(-c2nc(-c3ccc(Cl)c(Cl)c3)c(SC(C)C)s2)c(C(=O)O)c1-c1cccc(Cl)c1C [Compound 59, 4-(3-chloro-2-methylphenyl)-1-(4-(3,4-dichlorophenyl)-5-(isopropylthio)thiazol-2-yl)-3-methyl-1H-pyrazole-5-carboxylic Acid] | 5.00 to 5.30
31 | Cc1nn(-c2nc(-c3ccc(Cl)c(Cl)c3)c(SC(C)C)s2)c(C(=O)O)c1-c1cc(C(F)(F)F)cc(C(F)(F)F)c1 [Compound 60, 4-(3,5-bis(trifluoromethyl)phenyl)-1-(4-(3,4-dichlorophenyl)-5-(isopropylthio)thiazol-2-yl)-3-methyl-1H-pyrazole-5-carboxylic Acid] | 5.30 to 6.00
